In US8143212B2 (Vicuron Pharmaceuticals Inc., priority 2002, dated 2012):

Test system: S. aureus
Assay: Murine thigh-infection model (time kill, dosing regimen, PK/PD; Tables 31, 32);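 note: mouse thigh infection, bacterial counts per thigh after therapy, dose-response curves fitted with a maximum effect model to give static and 1 or 2 log kill exposures, mean of 4 thighs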
Details: for 1 log kill mg/kg / 2 log kill mg/kg: total dose over 6 days
[1] = Mean ± SD of S. aureus strains, q 24 h regimen
[2] = Mean ± SD of S. aureus strains, q 72 h regimen

Description: The murine thigh-infection model was used for all organisms throughout the various studies. In this well-established model, approximately 10^6 Cfu of the study organisms are injected into one or both thighs (in 0.1 ml) two hours before starting therapy. The number of organisms in the thigh at the start of therapy in the following studies varied from 10^7.15-7.59 cfu/thigh.
Each point represents the mean of 4 thighs. Five dose levels, ranging 16-fold were used. The dose levels used in the study against S. aureus ranged from 5 to 80 mg/kg.
In these studies, multiple dosing regimens varying the dose and dosage interval were administered intraperitoneally in 0.2 ml volumes to groups of mice for 144 h (6 days). The dosing intervals chosen were 12, 24, 36, and 72 hours. Five different doses (two-fold increases) were used. Study against S. aureus utilized total dose (mg/kg/6d) levels ranging from 30 to 480 mg/kg/6d. […] Each point represents the mean of 4 thighs.
Each of the dose-response curves was also mathematically characterized using a maximum effect model. […] From these parameters we could then calculate the dose required to produce a net bacteriostatic effect over the 144 hour treatment period as well as the doses necessary to produce a 1 and 2 log-reduction in organism burden.
We determined which PK/PD parameter correlated best with efficacy by relating the number of bacteria in thigh at the end of 144 hours of therapy with [1] the peak/MIC ratio, [2] the AUC/MIC ratio, and [3] the percentage of the dosing interval that serum levels exceed the MIC for each of the dosage regimens studied. The PK/PD parameter values for those doses not specifically studied were extrapolated from the values of the nearest studied doses. […] Each point represents the mean of four thighs. […] The data illustrated in these figures were also analyzed by the same maximum dose-response model mentioned above, except that the different PK/PD parameters were used in place of the dose. The R^2 represents the coefficient of determination observed for the relationship between efficacy and each PK/PD parameter.

With `CN[C@H]1C(=O)N[C@@H]2Cc3ccc(cc3)Oc3cc4cc(c3O[C@@H]3O[C@H](C(=O)O)[C@@H](O)[C@H](O)[C@H]3NC(=O)CCCCCCCCC(C)C)Oc3ccc(cc3Cl)[C@@H](O)[C@@H]3NC(=O)[C@H](NC(=O)[C@@H]4NC(=O)[C@@H](NC2=O)c2cc(cc(O)c2Cl)Oc2cc1ccc2O)c1ccc(O)c(c1)-c1c(O[C@H]2O[C@H](CO)[C@@H](O)[C@H](O)[C@@H]2O)cc(O)cc1[C@@H](C(=O)NCCCN(C)C)NC3=O` [Dalbavancin] the “1 Log Kill f24AUC/MBC” value (MRSA, q 24 h regimen) was 109, the “1 Log Kill f24AUC/MIC” value (MRSA, q 24 h regimen) was 452 and the “1 Log Kill mg/kg/24 h” value (MRSA, q 24 h regimen) was 45.3 mg/kg/24 h. For the same compound, the “2 Log Kill f24AUC/MBC” value (MRSA, q 24 h regimen) was 125, the “2 Log Kill f24AUC/MIC” value (MRSA, q 24 h regimen) was 519 and the “2 Log Kill mg/kg/24 h” value (MRSA, q 24 h regimen) was 53.5 mg/kg/24 h. For the same compound, the “Static Effect f24AUC/MBC” value (MRSA, q 24 h regimen) was 90, the “Static Effect f24AUC/MIC” value (MRSA, q 24 h regimen) was 374 and the “Static Effect mg/kg/24 h” value (MRSA, q 24 h regimen) was 37.7 mg/kg/24 h. The “1 Log Kill f24AUC/MBC” value (MRSA, q 72 h regimen) was 48.8, the “1 Log Kill f24AUC/MIC” value (MRSA, q 72 h regimen) was 202 and the “1 Log Kill mg/kg/24 h” value (MRSA, q 72 h regimen) was 62 mg/kg/24 h. The “2 Log Kill f24AUC/MBC” value (MRSA, q 72 h regimen) was 70, the “2 Log Kill f24AUC/MIC” value (MRSA, q 72 h regimen) was 292 and the “2 Log Kill mg/kg/24 h” value (MRSA, q 72 h regimen) was 85 mg/kg/24 h. The “Static Effect f24AUC/MBC” value (MRSA, q 72 h regimen) was 35.3, the “Static Effect f24AUC/MIC” value (MRSA, q 72 h regimen) was 147 and the “Static Effect mg/kg/72 h” value (MRSA, q 72 h regimen) was 43 mg/kg/72 h. For the same compound, the “1 Log Kill f24AUC/MBC” value [1] was 86.6 ± 27.6, the “1 Log Kill f24AUC/MIC” value [1] was 268 ± 119 and the “1 Log Kill mg/kg/24 h” value [1] was 43.7 ± 9.5 mg/kg/24 h. For the same compound, the “2 Log Kill f24AUC/MBC” value [1] was 110 ± 42, the “2 Log Kill f24AUC/MIC” value [1] was 332 ± 131 and the “2 Log Kill mg/kg/24 h” value [1] was 55 ± 14 mg/kg/24 h. The “Static Effect f24AUC/MBC” value [1] was 101 ± 72, the “Static Effect f24AUC/MIC” value [1] was 265 ± 143 and the “Static Effect mg/kg/24 h” value [1] was 37.1 ± 9.1 mg/kg/24 h. The “1 Log Kill f24AUC/MBC” value [2] was 75.9 ± 45.2, the “1 Log Kill f24AUC/MIC” value [2] was 213 ± 8.14 and the “1 Log Kill mg/kg/24 h” value [2] was 94 ± 46 mg/kg/24 h. The “2 Log Kill f24AUC/MBC” value [2] was 101 ± 61, the “2 Log Kill f24AUC/MIC” value [2] was 266 ± 88 and the “2 Log Kill mg/kg/24 h” value [2] was 120 ± 54 mg/kg/24 h. For the same compound, the “Static Effect f24AUC/MBC” value [2] was 55 ± 31, the “Static Effect f24AUC/MIC” value [2] was 160 ± 67 and the “Static Effect mg/kg/72 h” value [2] was 72 ± 41 mg/kg/72 h. The “1 Log Kill f24AUC/MBC” value (SA25923, q 24 h regimen) was 60, the “1 Log Kill f24AUC/MIC” value (SA25923, q 24 h regimen) was 250 and the “1 Log Kill mg/kg/24 h” value (SA25923, q 24 h regimen) was 51.2 mg/kg/24 h. For the same compound, the “2 Log Kill f24AUC/MBC” value (SA25923, q 24 h regimen) was 69.3, the “2 Log Kill f24AUC/MIC” value (SA25923, q 24 h regimen) was 289 and the “2 Log Kill mg/kg/24 h” value (SA25923, q 24 h regimen) was 60 mg/kg/24 h. For the same compound, the “Static Effect f24AUC/MBC” value (SA25923, q 24 h regimen) was 52, the “Static Effect f24AUC/MIC” value (SA25923, q 24 h regimen) was 216 and the “Static Effect mg/kg/24 h” value (SA25923, q 24 h regimen) was 42.7 mg/kg/24 h. For the same compound, the “1 Log Kill f24AUC/MBC” value (SA25923, q 72 h regimen) was 76.1, the “1 Log Kill f24AUC/MIC” value (SA25923, q 72 h regimen) was 317 and the “1 Log Kill mg/kg/24 h” value (SA25923, q 72 h regimen) was 185 mg/kg/24 h. For the same compound, the “2 Log Kill f24AUC/MBC” value (SA25923, q 72 h regimen) was 88.1, the “2 Log Kill f24AUC/MIC” value (SA25923, q 72 h regimen) was 367 and the “2 Log Kill mg/kg/24 h” value (SA25923, q 72 h regimen) was 214 mg/kg/24 h. For the same compound, the “Static Effect f24AUC/MBC” value (SA25923, q 72 h regimen) was 66, the “Static Effect f24AUC/MIC” value (SA25923, q 72 h regimen) was 274 and the “Static Effect mg/kg/72 h” value (SA25923, q 72 h regimen) was 160 mg/kg/72 h. The “1 log kill mg/kg” value (SA29213, q 24 h) was 267 mg/kg, the “1 log kill mg/kg” value (SA29213, q 36 h) was 36 mg/kg and the “2 log kill mg/kg” value (SA29213, q 36 h) was 122 mg/kg. For the same compound, the “1 log kill mg/kg” value (SA29213, q 72 h) was 31 mg/kg, the “2 log kill mg/kg” value (SA29213, q 72 h) was 128 mg/kg and the “Static Effect f24AUC/MBC” value (SA31005, q 24 h regimen) was 242. For the same compound, the “Static Effect f24AUC/MIC” value (SA31005, q 24 h regimen) was 483, the “Static Effect mg/kg/24 h” value (SA31005, q 24 h regimen) was 49.3 mg/kg/24 h and the “1 Log Kill f24AUC/MBC” value (SA31005, q 72 h regimen) was 163. For the same compound, the “1 Log Kill f24AUC/MIC” value (SA31005, q 72 h regimen) was 325, the “1 Log Kill mg/kg/24 h” value (SA31005, q 72 h regimen) was 94.6 mg/kg/24 h and the “2 Log Kill f24AUC/MBC” value (SA31005, q 72 h regimen) was 217. For the same compound, the “2 Log Kill f24AUC/MIC” value (SA31005, q 72 h regimen) was 364, the “2 Log Kill mg/kg/24 h” value (SA31005, q 72 h regimen) was 127 mg/kg/24 h and the “Static Effect f24AUC/MBC” value (SA31005, q 72 h regimen) was 112. For the same compound, the “Static Effect f24AUC/MIC” value (SA31005, q 72 h regimen) was 223, the “Static Effect mg/kg/72 h” value (SA31005, q 72 h regimen) was 67.7 mg/kg/72 h and the “1 Log Kill f24AUC/MBC” value (SA33591, q 24 h regimen) was 58.3. The “1 Log Kill f24AUC/MIC” value (SA33591, q 24 h regimen) was 121, the “1 Log Kill mg/kg/24 h” value (SA33591, q 24 h regimen) was 27.7 mg/kg/24 h and the “2 Log Kill f24AUC/MBC” value (SA33591, q 24 h regimen) was 74.3. The “2 Log Kill f24AUC/MIC” value (SA33591, q 24 h regimen) was 157, the “2 Log Kill mg/kg/24 h” value (SA33591, q 24 h regimen) was 33.5 mg/kg/24 h and the “Static Effect f24AUC/MBC” value (SA33591, q 24 h regimen) was 46. For the same compound, the “Static Effect f24AUC/MIC” value (SA33591, q 24 h regimen) was 96.2, the “Static Effect mg/kg/24 h” value (SA33591, q 24 h regimen) was 22.3 mg/kg/24 h and the “1 Log Kill f24AUC/MBC” value (SA33591, q 72 h regimen) was 76.6. The “1 Log Kill f24AUC/MIC” value (SA33591, q 72 h regimen) was 160, the “1 Log Kill mg/kg/24 h” value (SA33591, q 72 h regimen) was 93 mg/kg/24 h and the “2 Log Kill f24AUC/MBC” value (SA33591, q 72 h regimen) was 94. The “2 Log Kill f24AUC/MIC” value (SA33591, q 72 h regimen) was 195, the “2 Log Kill mg/kg/24 h” value (SA33591, q 72 h regimen) was 114 mg/kg/24 h and the “Static Effect f24AUC/MBC” value (SA33591, q 72 h regimen) was 59. The “Static Effect f24AUC/MIC” value (SA33591, q 72 h regimen) was 123, the “Static Effect mg/kg/72 h” value (SA33591, q 72 h regimen) was 74 mg/kg/72 h and the “1 Log Kill f24AUC/MBC” value (SA307109, q 72 h regimen) was 12.9. For the same compound, the “1 Log Kill f24AUC/MIC” value (SA307109, q 72 h regimen) was 108, the “1 Log Kill mg/kg/24 h” value (SA307109, q 72 h regimen) was 34 mg/kg/24 h and the “2 Log Kill f24AUC/MBC” value (SA307109, q 72 h regimen) was 14.6. The “2 Log Kill f24AUC/MIC” value (SA307109, q 72 h regimen) was 121, the “2 Log Kill mg/kg/24 h” value (SA307109, q 72 h regimen) was 37 mg/kg/24 h and the “Static Effect f24AUC/MBC” value (SA307109, q 72 h regimen) was 11.3. For the same compound, the “Static Effect f24AUC/MIC” value (SA307109, q 72 h regimen) was 94, the “Static Effect mg/kg/72 h” value (SA307109, q 72 h regimen) was 31 mg/kg/72 h and the “1 Log Kill f24AUC/MBC” value (SA Smith, q 24 h regimen) was 119. For the same compound, the “1 Log Kill f24AUC/MIC” value (SA Smith, q 24 h regimen) was 248, the “1 Log Kill mg/kg/24 h” value (SA Smith, q 24 h regimen) was 50.7 mg/kg/24 h and the “2 Log Kill f24AUC/MBC” value (SA Smith, q 24 h regimen) was 173. The “2 Log Kill f24AUC/MIC” value (SA Smith, q 24 h regimen) was 361, the “2 Log Kill mg/kg/24 h” value (SA Smith, q 24 h regimen) was 73.5 mg/kg/24 h and the “Static Effect f24AUC/MBC” value (SA Smith, q 24 h regimen) was 75. For the same compound, the “Static Effect f24AUC/MIC” value (SA Smith, q 24 h regimen) was 156, the “Static Effect mg/kg/24 h” value (SA Smith, q 24 h regimen) was 33.5 mg/kg/24 h and the “1 Log Kill f24AUC/MBC” value (SA Smith, q 72 h regimen) was 78.0. For the same compound, the “1 Log Kill f24AUC/MIC” value (SA Smith, q 72 h regimen) was 163, the “1 Log Kill mg/kg/24 h” value (SA Smith, q 72 h regimen) was 95 mg/kg/24 h and the “2 Log Kill f24AUC/MBC” value (SA Smith, q 72 h regimen) was 22. For the same compound, the “2 Log Kill f24AUC/MIC” value (SA Smith, q 72 h regimen) was 254, the “2 Log Kill mg/kg/24 h” value (SA Smith, q 72 h regimen) was 148 mg/kg/24 h and the “Static Effect f24AUC/MBC” value (SA Smith, q 72 h regimen) was 46.1. The “Static Effect f24AUC/MIC” value (SA Smith, q 72 h regimen) was 96, the “Static Effect mg/kg/72 h” value (SA Smith, q 72 h regimen) was 59 mg/kg/72 h and the drop in cfu (all strains, 6 day study) was > 4 log10. The “free drug 24 h AUC/MIC associated with a static effect” value (every 24 h dosing) was 265±143, the “free drug 24 h AUC/MIC associated with a static effect” value (every 72 h dosing) was 160±67 and the “free drug AUC/MIC required for efficacy” value (over the 6 days) was ~1000. The extent of killing (single doses, highest doses studied) was > 2 log.
